Measured values published in ChEMBL document CHEMBL6120963, “Discovery of Novel PROTAC SIRT6 Degraders with Potent Efficacy against Hepatocellular Carcinoma” (J Med Chem, 2024).
pIC50: −log10 of the molar value. Activity calls are given as the source filed them. The rule behind the calls is not given here.

How the values were obtained:
SK-HEP1 [1] = experiment: Induction of SIRT6 degradation in human SK-HEP1 cells at 5 uM incubated for 36 hrs by In-Cell ELISA relative to control; format: cell-based
SK-HEP1 [2] = experiment: Cytotoxicity against human SK-HEP1 cells incubated for 72 hrs by CCK8 assay; format: functional, cell-based; details: SK-HEP1, 72 h
SK-HEP1 [3] = experiment: Induction of SIRT6 degradation in human SK-HEP1 cells at 0.5 uM incubated for 36 hrs by In-Cell ELISA relative to control; format: cell-based
[4] = molecular target: NAD-dependent protein deacylase sirtuin-6 (Homo sapiens) (UniProt Q8N6T7); experiment: Inhibition of SIRT6 in human SK-HEP1 cells assessed as increase in H3K9Ac level incubated for 36 hrs by Western blot analysis; format: cell-based; details: dose 1.25-20 µM
Chain of NAD-dependent protein deacylase sirtuin-6 (Homo sapiens) (Q8N6T7 whole entry): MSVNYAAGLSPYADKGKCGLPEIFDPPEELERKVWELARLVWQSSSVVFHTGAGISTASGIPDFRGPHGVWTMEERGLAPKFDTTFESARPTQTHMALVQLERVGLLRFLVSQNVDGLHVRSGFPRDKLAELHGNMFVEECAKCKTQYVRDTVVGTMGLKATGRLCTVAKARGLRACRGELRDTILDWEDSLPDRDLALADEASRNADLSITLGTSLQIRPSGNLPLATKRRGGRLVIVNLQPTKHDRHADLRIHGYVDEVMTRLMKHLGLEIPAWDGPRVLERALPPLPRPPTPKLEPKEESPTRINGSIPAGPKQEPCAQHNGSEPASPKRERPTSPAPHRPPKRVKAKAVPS

[5] = molecular target: T1, Protein cereblon/NAD-dependent protein deacylase sirtuin-6 (Homo sapiens, UniProt Q8N6T7+Q96SW2); experiment: PROTAC activity at CRBN/SIRT6 in human SK-HEP1 cells assessed as induction of SIRT6 degradation at 2 uM incubated for 36 hrs by In-Cell ELISA relative to control; format: cell-based
T1 sequence (Q8N6T7 2-355 limits assumed): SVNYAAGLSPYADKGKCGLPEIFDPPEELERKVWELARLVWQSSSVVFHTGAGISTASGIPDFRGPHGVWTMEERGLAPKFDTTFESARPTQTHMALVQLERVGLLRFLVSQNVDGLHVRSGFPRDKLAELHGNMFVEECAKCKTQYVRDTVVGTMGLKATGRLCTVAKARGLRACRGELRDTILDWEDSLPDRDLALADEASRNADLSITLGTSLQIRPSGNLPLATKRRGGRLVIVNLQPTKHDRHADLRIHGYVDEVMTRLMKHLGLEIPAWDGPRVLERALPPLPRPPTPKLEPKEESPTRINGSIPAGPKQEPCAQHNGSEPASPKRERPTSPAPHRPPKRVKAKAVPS
T1 sequence (Q96SW2 whole entry partner): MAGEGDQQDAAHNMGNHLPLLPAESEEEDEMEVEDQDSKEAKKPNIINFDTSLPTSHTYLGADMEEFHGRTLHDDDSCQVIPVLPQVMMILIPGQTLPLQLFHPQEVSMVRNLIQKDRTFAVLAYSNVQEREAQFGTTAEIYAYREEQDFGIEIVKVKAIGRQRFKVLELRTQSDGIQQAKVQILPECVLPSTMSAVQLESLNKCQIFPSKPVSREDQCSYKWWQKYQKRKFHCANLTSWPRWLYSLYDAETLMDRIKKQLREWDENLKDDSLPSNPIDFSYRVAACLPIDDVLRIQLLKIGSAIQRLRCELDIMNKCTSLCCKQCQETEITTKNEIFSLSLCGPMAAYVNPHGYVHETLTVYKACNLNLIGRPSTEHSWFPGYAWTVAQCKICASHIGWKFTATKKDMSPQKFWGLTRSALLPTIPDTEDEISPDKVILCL

[6] = molecular target: T1, Protein cereblon/NAD-dependent protein deacylase sirtuin-6; experiment: PROTAC activity at CRBN/SIRT6 in human SK-HEP1 cells assessed as induction of SIRT6 degradation at 5 uM incubated for 36 hrs by In-Cell ELISA relative to control; format: cell-based
[7] = molecular target: T1, Protein cereblon/NAD-dependent protein deacylase sirtuin-6; experiment: PROTAC activity at CRBN/SIRT6 in human SK-HEP1 cells assessed as induction of SIRT6 degradation at 0.5 uM incubated for 36 hrs by In-Cell ELISA relative to control; format: cell-based
[8] = molecular target: T1, Protein cereblon/NAD-dependent protein deacylase sirtuin-6; experiment: PROTAC activity at CRBN/SIRT6 in human SK-HEP1 cells assessed as induction of SIRT6 degradation at 2 to 3 uM incubated for 36 hrs by Western blot analysis; format: cell-based; details: dose 2-3 µM
[9] = molecular target: T1, Protein cereblon/NAD-dependent protein deacylase sirtuin-6; experiment: PROTAC activity at CRBN/SIRT6 in human SK-HEP1 cells assessed as induction of SIRT6 degradation at 200 nM incubated for 36 hrs by In-Cell ELISA relative to control; format: cell-based
[10] = molecular target: T1, Protein cereblon/NAD-dependent protein deacylase sirtuin-6; experiment: PROTAC activity at CRBN/SIRT6 in human SK-HEP1 cells assessed as hook effect upto 5 uM incubated for 36 hrs by Western blot analysis; format: cell-based

Row | SMILES | Activity [5] | Activity [6] | Activity [7] | Activity [8] | Activity [9] | other results
1 | CN1CCN(c2ccc([N+](=O)[O-])c(N)c2)CC1 |  |  |  |  |  | Activity (SK-HEP1 [1]): 4.9%; pIC50 (SK-HEP1 [2]): 5.37; Activity (SK-HEP1 [3]): 1.8%; inhibition [4]: Dose-dependent-effect
2 | Nc1cc(N2CCN(CC3CCN(c4cc5c(cc4F)C(=O)N(C4CCC(=O)NC4=O)C5=O)C3)CC2)ccc1[N+](=O)[O-] (centres undefined) | 99.8% |  |  | Active | 94.5% | 
3 | Nc1cc(N2CCN(CCNCC3C4CN(c5cc6c(cc5F)C(=O)N(C5CCC(=O)NC5=O)C6=O)CC34)CC2)ccc1[N+](=O)[O-] (centres undefined) | < 10% |  |  |  |  | 
4 | Nc1cc(N2CCN(CC3C4CN(c5ccc6c(c5)C(=O)N(C5CCC(=O)NC5=O)C6=O)CC34)CC2)ccc1[N+](=O)[O-] (centres undefined) | 17.8% |  |  |  |  | 
5 | Nc1cc(N2CCN(CCNCCCC3CCN(c4cc5c(cc4F)C(=O)N(C4CCC(=O)NC4=O)C5=O)CC3)CC2)ccc1[N+](=O)[O-] (centres undefined) | 97.9% |  |  | Active | 64.3% | 
6 | Nc1cc(N2CCN(CC3CCCN(c4cc5c(cc4F)C(=O)N(C4CCC(=O)NC4=O)C5=O)C3)CC2)ccc1[N+](=O)[O-] (centres undefined) | 56.6% |  |  |  | < 10% | Activity [10]: inactive
7 | Nc1cc(N2CCN(CCC3CCN(c4cc5c(cc4F)C(=O)N(C4CCC(=O)NC4=O)C5=O)CC3)CC2)ccc1[N+](=O)[O-] (centres undefined) | 19.8% |  |  |  | < 10% | 
8 | Nc1cc(N2CCN(CCNCCC3CCN(c4cc5c(cc4F)C(=O)N(C4CCC(=O)NC4=O)C5=O)CC3)CC2)ccc1[N+](=O)[O-] (centres undefined) | 74.8% |  |  | Active |  | 
9 | Nc1cc(N2CCN(CCNCC3CCCN(c4cc5c(cc4F)C(=O)N(C4CCC(=O)NC4=O)C5=O)C3)CC2)ccc1[N+](=O)[O-] (centres undefined) | 98.5% |  |  | Active | 81.2% | 
10 | Nc1cc(N2CCN(CCNCC3CCN(c4cc5c(cc4F)C(=O)N(C4CCC(=O)NC4=O)C5=O)C3)CC2)ccc1[N+](=O)[O-] (centres undefined) | 78.4% |  |  | Active | 66.2% | 

Continued, in another order:

Row | Activity [5] | Activity [6] | Activity [7] | Activity [8] | Activity [9] | SMILES | other results
11 | < 10% |  |  |  |  | Nc1cc(N2CCN(CCNCC3CCN(c4ccc5c(c4)C(=O)N(C4CCC(=O)NC4=O)C5=O)CC3)CC2)ccc1[N+](=O)[O-] (centres undefined) | 
12 |  | 15.4% |  |  |  | Nc1cc(N2CCN(C(=O)CNc3cccc4c3C(=O)N(C3CCC(=O)NC3=O)C4=O)CC2)ccc1[N+](=O)[O-] (centres undefined) | 
13 |  |  | 27.8% |  |  | Nc1cc(N2CCN(CCOCCOCCOCCOCC(=O)Nc3cccc4c3C(=O)N(C3CCC(=O)NC3=O)C4=O)CC2)ccc1[N+](=O)[O-] (centres undefined) | 
14 | 79.6% |  |  | Active | 11.2% | Nc1cc(N2CCN(CCC3CCN(c4ccc5c(c4)C(=O)N(C4CCC(=O)NC4=O)C5=O)CC3)CC2)ccc1[N+](=O)[O-] (centres undefined) | 
15 | < 10% |  |  |  |  | Nc1cc(N2CCN(CCNCC3CCN(c4ccc5c(c4)C(=O)N(C4CCC(=O)NC4=O)C5=O)C3)CC2)ccc1[N+](=O)[O-] (centres undefined) | 
16 |  | 47.2% | 25.6% |  |  | Nc1cc(N2CCN(CCC(=O)Nc3cccc4c3C(=O)N(C3CCC(=O)NC3=O)C4=O)CC2)ccc1[N+](=O)[O-] (centres undefined) | 
17 |  | 90.6% | 46.7% | Active |  | Nc1cc(N2CCN(CCOCCOCC(=O)Nc3cccc4c3C(=O)N(C3CCC(=O)NC3=O)C4=O)CC2)ccc1[N+](=O)[O-] (centres undefined) | 
18 |  | 80.8% | 44.9% | Active |  | Nc1cc(N2CCN(CCOCCOCCOCC(=O)Nc3cccc4c3C(=O)N(C3CCC(=O)NC3=O)C4=O)CC2)ccc1[N+](=O)[O-] (centres undefined) | 
19 |  | 49.3% | 18.2% |  |  | Nc1cc(N2CCN(CCCCC(=O)Nc3cccc4c3C(=O)N(C3CCC(=O)NC3=O)C4=O)CC2)ccc1[N+](=O)[O-] (centres undefined) | 
20 |  | 87.3% | 72.1% |  |  | Nc1cc(N2CCN(CCCC(=O)Nc3cccc4c3C(=O)N(C3CCC(=O)NC3=O)C4=O)CC2)ccc1[N+](=O)[O-] (centres undefined) | 
